Like-named read-outs stand apart in the source and are kept apart here.
Legend:
[1] = target: human Fatty Acid Amide Hydrolase (FAAH) (Homo sapiens (Human), UniProt O00519); assay: biochemical
[2] = target: rat Fatty Acid Amide Hydrolase (FAAH) (Rattus norvegicus (Rat), UniProt P97612); assay: FAAH in vitro fluorescence assay (AAMCA hydrolysis), rat enzyme; assay type: biochemical; settings: for inhibition at 0.1 µM: read-out: rFAAH % inhibition at 100 nM; for inhibition at 0.1 µM / rFAAH % inhibition at 100 nM: 100 nM (tier I)
Experimental: Material and Reagents: All reagents were purchased from Sigma-Aldrich unless specified. […] Chaperone protein groEL-groES in pGRO7 plasmid (Takara Bio Inc, Japan) was co-expressed with Fatty Acid Amide Hydrolase (FAAH) to improve solubility of the protein expressed in E coli. […] Briefly, the bacterial cultures in Luria Broth (2 L) were induced with arabinose (2 mM) and Isopropyl (β-D-1-thiogalactopyranoside, IPTG (1 mM), for 20 h at room temperature. The cultures were centrifuged at 1200×g for 10 min and the cell pellet was resuspended in 100 mL buffer containing of 20 mM NaPi (pH 7.4), 100 mM NaCl, Benzonase (500u), Aprotinin (1 μg/mL) and Leupeptin (1 μg/mL). Cells were lyzed by sonication (Amp 20%, Pulse 15 s×15, on ice) and the cell debris removed by centrifugation at 5000×g for 20 min. The supernatant was enriched via ultracentrifugation at 100,000×g for 1 h and the cell pellet was resuspended in 16 mL buffer containing 20 mM NaPi (pH 7.8), 500 mM NaCl, 1% Triton X-100. The resuspended cell extract was subjected to ultra-centrifugation at 100,000×g for 1 h and the enriched supernatant was used in the in vitro assay. All protein extraction steps were carried out on ice or at 4° C.
The assay was carried out in 200 μL volume in a 96-well black polystyrene plate (Greiner Bio-one, Germany). Each reaction consisted of human Fatty Acid Amide Hydrolase (FAAH) protein and 10 μM AAMCA in assay buffer containing 50 mM HEPES, 1 mM EDTA and 0.1% BSA, pH 7.4. The reaction was incubated with 2 μL of varying concentrations of inhibitor in DMSO (final concentration of DMSO 1%) with shaking for 1 min and monitored for increase in fluorescence in kinetic mode for 50 min. […] Rate of reaction as a function of the concentration of the inhibitor was used to determine the IC50 of the inhibitors. Data was analyzed using GraphPad Prism 5 (GraphPad Software Inc., San Diego, Calif.). The activity of the compounds for rat Fatty Acid Amide Hydrolase (FAAH) was evaluated as described above with rat Fatty Acid Amide Hydrolase (FAAH) protein and 10 μM AAMCA substrate.

[3] = human FAAH, read-out: hFAAH IC50

rat Fatty Acid Amide Hydrolase (FAAH), sequence (P97612 30-579): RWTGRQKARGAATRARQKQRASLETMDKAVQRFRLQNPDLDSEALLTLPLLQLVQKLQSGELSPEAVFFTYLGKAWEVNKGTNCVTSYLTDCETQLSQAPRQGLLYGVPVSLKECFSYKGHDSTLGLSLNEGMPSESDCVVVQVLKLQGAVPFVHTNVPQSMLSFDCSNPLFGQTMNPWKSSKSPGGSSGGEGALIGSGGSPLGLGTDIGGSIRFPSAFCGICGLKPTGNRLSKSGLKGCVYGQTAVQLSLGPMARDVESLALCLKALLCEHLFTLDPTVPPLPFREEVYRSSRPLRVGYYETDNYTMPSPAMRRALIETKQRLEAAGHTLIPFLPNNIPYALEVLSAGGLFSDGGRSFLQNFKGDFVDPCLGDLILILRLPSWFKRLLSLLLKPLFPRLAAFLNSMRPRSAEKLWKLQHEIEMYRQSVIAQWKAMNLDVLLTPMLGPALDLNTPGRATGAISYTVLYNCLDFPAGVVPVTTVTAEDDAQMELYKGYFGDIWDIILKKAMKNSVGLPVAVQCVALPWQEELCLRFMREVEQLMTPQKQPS
human Fatty Acid Amide Hydrolase (FAAH), sequence (O00519 30-579): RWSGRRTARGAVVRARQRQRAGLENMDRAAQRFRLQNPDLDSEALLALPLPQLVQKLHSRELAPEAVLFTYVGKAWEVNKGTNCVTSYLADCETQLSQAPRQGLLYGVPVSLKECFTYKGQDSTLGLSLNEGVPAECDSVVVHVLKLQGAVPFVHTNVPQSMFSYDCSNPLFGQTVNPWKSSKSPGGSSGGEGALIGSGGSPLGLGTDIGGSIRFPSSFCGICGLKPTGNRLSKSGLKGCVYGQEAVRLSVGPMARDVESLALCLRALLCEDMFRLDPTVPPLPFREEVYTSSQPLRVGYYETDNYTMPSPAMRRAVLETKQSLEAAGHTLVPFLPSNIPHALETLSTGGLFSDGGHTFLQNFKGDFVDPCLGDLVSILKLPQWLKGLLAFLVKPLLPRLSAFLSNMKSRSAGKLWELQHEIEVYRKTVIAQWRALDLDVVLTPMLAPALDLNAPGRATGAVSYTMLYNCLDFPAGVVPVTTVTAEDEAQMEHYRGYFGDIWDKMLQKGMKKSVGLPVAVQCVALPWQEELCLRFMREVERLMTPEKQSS

SMILES | IC50 [1, 3] | inhibition at 0.1 µM ([2]; rat FAAH) | IC50 ([2]; rat FAAH, read-out: rFAAH IC50) | IC50 ([1]; read-out: hFAAH IC50) | further results
O=C(NC1CCC(=Cc2cccc(Oc3ccc(C(F)(F)F)cn3)c2)CC1)c1cnccn1 (centres unmarked) [Example 2.A-5, N-[4-[[3-[[5-(Trifluoromethyl)-2-pyridyl]oxy]phenyl]methylene]cyclohexyl]pyrazine-2-carboxamide] | 9 nM | 27% |  |  | 
O=C(NC1CCC(=Cc2cccc(Oc3ccc(C(F)(F)F)cn3)c2)CC1)c1ccc(C(F)(F)F)nc1 (centres unmarked) [Example 2.A-6, 6-(Trifluoromethyl)-N-[4-[[3-[[5-(trifluoromethyl)-2-pyridyl]oxy]phenyl]methylene]cyclohexyl]pyridine-3-carboxamide] | 102 nM | 37% |  |  | 
O=C(NC1CCC(=Cc2cccc(Oc3ccc(C(F)(F)F)cn3)c2)CC1)c1ccncc1 (centres unmarked) [Example 2.A-8, N-[4-[[3-[[5-(Trifluoromethyl)-2-pyridyl]oxy]phenyl]methylene]cyclohexyl]pyridine-4-carboxamide] | 14 nM | 14% |  |  | 
O=C(NC1CCC(=Cc2cccc(Oc3ccc(C(F)(F)F)cn3)c2)CC1)c1cn[nH]c1 (centres unmarked) [Example 2.A-9, N-[4-[[3-[[5-(Trifluoromethyl)-2-pyridyl]oxy]phenyl]methylene]cyclohexyl]-1H-pyrazole-4-carboxamide] | 2 nM |  | 53 nM |  | 
O=C(NC1CCC(=Cc2cccc(Oc3ccc(C(F)(F)F)cn3)c2)CC1)c1cccnn1 (centres unmarked) [Example 2.A-11, N-[4-[[3-[[5-(Trifluoromethyl)-2-pyridyl]oxy]phenyl]methylene]cyclohexyl]pyridazine-3-carboxamide] |  |  | 194 nM | 11 nM | 
O=C(NC1CCC(=Cc2cccc(Oc3ccc(C(F)(F)F)cn3)c2)CC1)c1cncnc1 (centres unmarked) [Example 2.A-12, N-[4-[[3-[[5-(Trifluoromethyl)-2-pyridyl]oxy]phenyl]methylene]cyclohexyl]pyrimidine-5-carboxamide] |  |  | 100 nM | 3 nM | 
O=C(NC1CCC(=Cc2cccc(Oc3ccc(C(F)(F)F)cn3)c2)CC1)c1ccc(F)nc1 (centres unmarked) [Example 2.A-14, 6-Fluoro-N-[4-[[3-[[5-(trifluoromethyl)-2-pyridyl]oxy]phenyl]methylene]cyclohexyl]pyridine-3-carboxamide] |  | 25% |  | 10 nM | 
O=C(NC1CCC(=Cc2cccc(Oc3ccc(C(F)(F)F)cn3)c2)CC1)c1cncc(F)c1 (centres unmarked) [Example 2.A-15, 5-Fluoro-N-[4-[[3-[[5-(trifluoromethyl)-2-pyridyl]oxy]phenyl]methylene]cyclohexyl]pyridine-3-carboxamide] |  |  |  |  | IC50 ([1]; hFAAH IC50): 5 nM; IC50 [2]: 188 nM
O=C(NC1CCC(=Cc2cccc(Oc3ccc(C(F)(F)F)cn3)c2)CC1)c1ncccn1 (centres unmarked) [Example 2.A-16, N-[4-[[3-[[5-(Trifluoromethyl)-2-pyridyl]oxy]phenyl]methylene]cyclohexyl]pyrimidine-2-carboxamide] | 15 nM | 38% |  |  | 
O=C(NC1CCC(=Cc2cccc(Oc3ccc(C(F)(F)F)cn3)c2)CC1)c1ccnnc1 (centres unmarked) [Example 2.A-17, N-[4-[[3-[[5-(Trifluoromethyl)-2-pyridyl]oxy]phenyl]methylene]cyclohexyl]pyridazine-4-carboxamide] | 10 nM | 14% |  |  | 
Cn1cc(C(=O)NC2CCC(=Cc3cccc(Oc4ccc(C(F)(F)F)cn4)c3)CC2)cn1 (centres unmarked) [Example 2.A-18, 1-Methyl-N-[4-[[3-[[5-(trifluoromethyl)-2-pyridyl]oxy]phenyl]methylene]cyclohexyl]pyrazole-4-carboxamide] |  | 38% |  |  | inhibition at 0.1 µM ([1]; read-out: hFAAH % inhibition at 100 nM, human FAAH, 100 nM (tier I)): 45%
O=C(NC1CCC(=Cc2cccc(Oc3ccc(C(F)(F)F)cn3)c2)CC1)c1cn[nH]n1 (centres unmarked) [Example 2.A-19, N-[4-[[3-[[5-(Trifluoromethyl)-2-pyridyl]oxy]phenyl]methylene]cyclohexyl]-2H-triazole-4-carboxamide] | 6 nM |  | 145 nM |  | 
Cc1nnc(C(=O)NC2CCC(=Cc3cccc(Oc4ccc(C(F)(F)F)cn4)c3)CC2)o1 (centres unmarked) [Example 2.A-20, 5-Methyl-N-[4-[[3-[[5-(trifluoromethyl)-2-pyridyl]oxy]phenyl]methylene]cyclohexyl]-1,3,4-oxadiazole-2-carboxamide] | 334 nM |  |  |  | rFAAH % inhibition at 100 nM ([2]; rat FAAH): No inhibition at 100 nM
O=C(NC1CCC(=Cc2cccc(Oc3ccc(C(F)(F)F)cn3)c2)CC1)c1ccc(Cl)nc1 (centres unmarked) [Example 2.A-22, 6-Chloro-N-[4-[[3-[[5-(trifluoromethyl)-2-pyridyl]oxy]phenyl]methylene]cyclohexyl]pyridine-3-carboxamide] | 5 nM |  | 81 nM |  | 
Cc1[nH]ncc1C(=O)NC1CCC(=Cc2cccc(Oc3ccc(C(F)(F)F)cn3)c2)CC1 (centres unmarked) [Example 2.A-23, 5-Methyl-N-[4-[[3-[[5-(trifluoromethyl)-2-pyridyl]oxy]phenyl]methylene]cyclohexyl]-1H-pyrazole-4-carboxamide] | 5 nM |  | 29 nM |  | 
CN(C)c1ccc(C(=O)NC2CCC(=Cc3cccc(Oc4ccc(C(F)(F)F)cn4)c3)CC2)cn1 (centres unmarked) [Example 2.A-24, 6-(Dimethylamino)-N-[4-[[3-[[5-(trifluoromethyl)-2-pyridyl]oxy]phenyl]methylene]cyclohexyl]pyridine-3-carboxamide] |  | 31% |  | 9 nM | 
O=C(NC1CCC(=Cc2cccc(Oc3ccc(C(F)(F)F)cn3)c2)CC1)c1cccnc1Cl (centres unmarked) [Example 2.A-25, 2-Chloro-N-[4-[[3-[[5-(trifluoromethyl)-2-pyridyl]oxy]phenyl]methylene]cyclohexyl]pyridine-3-carboxamide] |  |  |  | 16 nM | rFAAH % inhibition at 100 nM ([2]; rat FAAH): No inh at 100 nM
O=C(NC1CCC(=Cc2cccc(Oc3ccc(C(F)(F)F)cn3)c2)CC1)c1cccnc1F (centres unmarked) [Example 2.A-26, 2-Fluoro-N-[4-[[3-[[5-(trifluoromethyl)-2-pyridyl]oxy]phenyl]methylene]cyclohexyl]pyridine-3-carboxamide] |  |  | 84 nM | 5 nM | 
N#Cc1ccc(C(=O)NC2CCC(=Cc3cccc(Oc4ccc(C(F)(F)F)cn4)c3)CC2)cn1 (centres unmarked) [Example 2.A-27, 6-Cyano-N-[4-[[3-[[5-(trifluoromethyl)-2-pyridyl]oxy]phenyl]methylene]cyclohexyl]pyridine-3-carboxamide] | 55 nM | 27% |  |  | 
Cc1ncccc1C(=O)NC1CCC(=Cc2cccc(Oc3ccc(C(F)(F)F)cn3)c2)CC1 (centres unmarked) [Example 2.A-28, 2-Methyl-N-[4-[[3-[[5-(trifluoromethyl)-2-pyridyl]oxy]phenyl]methylene]cyclohexyl]pyridine-3-carboxamide] | 31 nM |  |  |  | rFAAH % inhibition at 100 nM ([2]; rat FAAH): No inhibition at 100 nM
O=C(NC1CCC(=Cc2cccc(Oc3ccc(C(F)(F)F)cn3)c2)CC1)c1c[nH]nc1C(F)(F)F (centres unmarked) [Example 2.A-29, 3-(Trifluoromethyl)-N-[4-[[3-[[5-(trifluoromethyl)-2-pyridyl]oxy]phenyl]methylene]cyclohexyl]-1H-pyrazole-4-carboxamide] |  |  | 24 nM | 3 nM | 
Cc1cncc(C(=O)NC2CCC(=Cc3cccc(Oc4ccc(C(F)(F)F)cn4)c3)CC2)c1 (centres unmarked) [Example 2.A-30, 5-Methyl-N-[4-[[3-[[5-(trifluoromethyl)-2-pyridyl]oxy]phenyl]methylene]cyclohexyl]pyridine-3-carboxamide] |  |  | 14 nM | 5 nM | 
O=C(NC1CCC(=Cc2cccc(Oc3ccc(C(F)(F)F)cn3)c2)CC1)c1cncc(Cl)c1 (centres unmarked) [Example 2.A-32, 5-Chloro-N-[4-[[3-[[5-(trifluoromethyl)-2-pyridyl]oxy]phenyl]methylene]cyclohexyl]pyridine-3-carboxamide] | 6 nM | 40% |  |  | 
O=C(NC1CCC(=Cc2cccc(Oc3ccc(C(F)(F)F)cn3)c2)CC1)c1ccccc1 (centres unmarked) [Example 2.A-34, N-[4-[[3-[[5-(Trifluoromethyl)-2-pyridyl]oxy]phenyl]methylene]cyclohexyl]benzamide] | 18 nM |  |  |  | inhibition at 1 µM ([2]; read-out: rFAAH % inhibition at 1 μM, rat FAAH, 1 μM): 50%
Cc1n[nH]c(C)c1C(=O)NC1CCC(=Cc2cccc(Oc3ccc(C(F)(F)F)cn3)c2)CC1 (centres unmarked) [Example 2.A-35, 3,5-Dimethyl-N-[4-[[3-[[5-(trifluoromethyl)-2-pyridyl]oxy]phenyl]methylene]cyclohexyl]-1H-pyrazole-4-carboxamide] |  | 38% |  | 29 nM | 

— patent publication US9682953B2, “Amide compounds, compositions and applications thereof” (Advinus Therapeutics Limited, priority 2011, dated 2017)
